# Laboratory results as given in the supplement of paper PMC3974653.
# Where a name gives a salt, the structure may show the parent alone.
# Test system: MTT (mouse pheochromocytoma)
# Assay: IC50 of cell viability (ATP content)
# Conditions: (24 or 48 h)
# Method in brief: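 The IC50 was fitted with a four-parameter logistic equation to normalised CellTiter-Glo ATP luminescence from MTT mouse pheochromocytoma cells. These cells, in white 1536-well plates, had been treated for 24 or 48 hrs with library compounds at 8 final concentrations between 0.5 nM and 46 µM, and luminescence was read after 15 minutes. Positive-control wells served as 100% and DMSO wells as 0%.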
row,Compound,IC50 of cell viability
1,CSCCC(NC(=O)[C@H](Cc1c[nH]c2ccccc12)NC(=O)CNC(=O)[C@H](CCSC)NC(=O)[C@H](Cc1ccc(O[S+](=O)([O-])O)cc1)NC(=O)[C@@H](N)CC(=O)O)C(=O)N[C@@H](CC(=O)O)C(=O)N[C@@H](Cc1ccccc1)C(N)=O (some centres undefined) [(Tyr[SO3H]27)Cholecystokinin fragment 26-33 Amide],> 46 µM
2,CN(C)CCC=C1C2=C(C=CC=C2)\C=C/C3=C1C=CC=C3 [Flexeril],> 46 µM
3,CC(/C=C1\SC(=S)N(CC(=O)O)C1=O)=C\c1ccccc1 [Epalrestat],> 46 µM
4,"Nc1ccncc1N [3,4-DIAMINOPYRIDINE PHOSPHATE]",> 46 µM
5,O=P([O-])(O)C(O)(Cc1cccnc1)P(=O)([O-])O [Acide risedronique],> 46 µM
6,O=C(NCNC(=O)NC1C(=O)NC(=O)N1CO)NC1C(=O)NC(=O)N1CO (centres undefined) [Imidazolidinyl urea],> 46 µM
7,CC(C)C(C)(C)C(C)(C)C(C)(C)S [tert-Dodecanethiol],> 46 µM
8,CCOC(=O)C(CCc1ccccc1)NC(C)C(=O)N1Cc2ccccc2CC1C(=O)O.Cl (centres undefined) [QUINAPRIL HYDROCHLORIDE],> 46 µM
9,CCOC(=O)[C@H](CCc1ccccc1)N[C@@H](C)C(=O)N(CC(=O)O)C1Cc2ccccc2C1 [DELAPRIL HYDROCHLORIDE],> 46 µM
10,[O]=[Bi][O][Bi]=[O] [BISMUTH OXIDE],> 46 µM
11,CC1(C)SC2[C@@H](/N=C/N3CCCCCC3)C(=O)N2[C@H]1C(=O)O (some centres undefined) [Amdinocillin],> 46 µM
12,O=C([O-])c1cc2cc(Cc3cccnc3)ccc2o1.[Na+] [FUREGRELATE SODIUM],> 46 µM
13,COC(=O)CCC(=O)CN [METHYL AMINOLEVULINATE HYDROCHLORIDE],> 46 µM
14,CCCC(C(=O)OCCN(CC)CC)(c1ccccc1)c1ccccc1.Cl [PROADIFEN HYDROCHLORIDE],> 46 µM
15,CN(C)CCC[C@@]1(c2ccc(F)cc2)OCc2cc(C#N)ccc21.O=C(O)C(=O)O [ESCITALOPRAM OXALATE],> 46 µM
16,CC(C)(S)C(=O)N[C@H](CS)C(=O)O [Bucillamine],> 46 µM
17,N#CN [Cyanamide],> 46 µM
18,COC1=C2OC3C(O)\C=C/C4[C@H]5CC(=C2[C@@]34CCN5)C=C1 (some centres undefined) [N-Norcodeine],> 46 µM
19,CC(=O)C[C@H](C1=CC=C(C=C1)[N+]([O-])=O)\C2=C(/O)C3=C(OC2=O)C=CC=C3 [Acenocoumarol],> 46 µM
20,CNc1ccc(C(=O)CC(O)CCC(C)C2OC(=O)CC(O)CC(=O)CC(O)CC(O)CC(O)CC(O)CC3(O)CC(O)C(C(=O)OC)C(CC(O[C@@H]4OC(C)C(O)C(N)C4O)/C=C/C=C/C=C/C=C/C=C/C=C/C=C/C2C)O3)cc1 (some centres undefined) [MEPARTRICIN],> 46 µM
21,C1CN\C(N1)=C/C2=CC=CC3=C2C=CC=C3 [Nephazoline],> 46 µM
22,CC(O)C(N)C(=O)O (centres undefined) [THREONINE],> 46 µM
23,N#C/C(=C1/SC[C@@H](c2ccc(Cl)cc2Cl)S1)n1ccnc1 [LULICONAZOLE],> 46 µM

row,Compound,IC50 of cell viability
1,CC(=O)Nc1ccc([S+](=O)([O-])Nc2cc(C)on2)cc1 [N-Acetyl Sulfamethoxazole],> 46 µM
2,CNCc1ccccc1.Cl [N-METHYLBENZYLAMINE HYDROCHLORIDE],> 46 µM
3,CC1=CC2=C(O1)C(=C3OC(=O)\C=C(C)/C3=C2)C [Trioxsalen],> 46 µM
4,O=C(O)Cc1cn(-c2ccccc2)nc1-c1ccc(Cl)cc1 [Lonazolac],> 46 µM
5,CCN1C[C@]2(COC)[C@H](O)C[C@H](OC)[C@]34C1C([C@H](OC)[C@H]23)[C@]1(OC(C)=O)[C@H]2[C@@H](OC(=O)c3ccccc3)[C@](O)(C[C@H]24)[C@@H](OC)[C@@H]1O [ACONITINE],> 46 µM
6,CC(C)Nc1cccnc1N1CCN(C(=O)c2cc3cc(N[S+](C)(=O)[O-])ccc3[nH]2)CC1 [DELAVIRDINE MESYLATE],> 46 µM
7,CCCCC[C@H](O)/C=C/[C@H]1[C@H](O)CC(=O)[C@@H]1C/C=C\CCCC(=O)O [DINOPROSTONE],> 46 µM
8,CCOC(=O)NNc1nncc2ccccc12 [Todralazine hydrochloride],> 46 µM
9,NC(=O)c1cc([N+](=O)[O-])cc([N+](=O)[O-])c1 [NITROMIDE],> 46 µM
10,NC(CO)(CO)CO [TROMETHAMINE],> 46 µM
11,Cc1ccccc1C(OCCN(C)C)c1ccccc1 (centres undefined) [Orphenadrine citrate salt],> 46 µM
12,COc1ccc2c(c1)c(CC(=O)OCC(=O)O)c(C)n2C(=O)c1ccc(Cl)cc1 [Acemetacin],> 46 µM
13,O=C(O)CCC(=O)O [SUCCINIC ACID],> 46 µM
14,Cc1ccc(/C(=C\CN2CCCC2)c2ccccn2)cc1 [trans-TRIPROLIDINE],> 46 µM
15,CN(C)CCCOc1nn(Cc2ccccc2)c2ccccc12 [Benzydamine hydrochloride],> 46 µM
16,CO/N=C(\C(=O)NC1C(=O)N2C(C(=O)OCOC(=O)C(C)(C)C)=C(/C=C\c3scnc3C)CSC12)c1csc(N)n1 (centres undefined) [CEFDITORIN PIVOXIL],> 46 µM
17,CC12CCC(C1)C(C)(C)C2=O (centres undefined) [FENCHONE],> 46 µM
18,COc1cc(N[S+](=O)([O-])c2ccc(N)cc2)ncn1 [Sulfamonomethoxine],> 46 µM
19,CCN(CC)CCNC(=O)c1ccc(N[S+](C)(=O)[O-])cc1.Cl.O [Sematilide monohydrochloride monohydrate],> 46 µM
20,c1ccc2c(c1)Sc1ccccc1N2CCN1CCCC1 [PARATHIAZINUM],> 46 µM
21,C=CCC1([C@@H](C)CCC)C(=O)NC(=O)NC1=O [S-(-)-Secobarbital],> 46 µM
22,N[S+](=O)([O-])c1cc2c(cc1Cl)N[C@@H](CC1CCCC1)N[S+]2(=O)[O-] [Cyclopenthiazide],> 46 µM
23,Cc1cc(C)c(NC(=O)CN(CC(=O)O)CC(=O)O)c(C)c1Br [MEBROFENIN],> 46 µM

row,Compound,IC50 of cell viability
1,CC(C)CC(N(C)C)C1(c2ccc(Cl)cc2)CCC1.Cl (centres undefined) [SIBUTRAMINE HYDROCHLORIDE],> 46 µM
2,CCCCCC(O)C1C(=O)OC(C)C(O)C=CC=CC=CC=CC=C(C)C(O)C(O)C(O)CC(O)CC(O)CC(O)CC(O)CC1O (centres undefined) [PENTAMYCIN],> 46 µM
3,OCC1(CO)COC(C(Cl)(Cl)Cl)OC1 [Penthrichloral],> 46 µM
4,Clc1ccc(C(c2ccccc2Cl)C(Cl)Cl)cc1 (centres undefined) [Mitotane],> 46 µM
5,CC(=O)Nc1ncc([N+](=O)[O-])s1 [Nithiamide],> 46 µM
6,CN[C@@H](CC(C)C)C(=O)N[C@@H]1C(=O)N[C@H](CC(N)=O)C(=O)N[C@H]2C(=O)N[C@@H]3C(=O)N[C@H](C(=O)N[C@H](C(=O)O)c4cc(O)cc(O)c4-c4cc3ccc4O)[C@H](O)c3ccc(c(Cl)c3)Oc3cc2cc(c3O[C@@H]2O[C@@H](CO)[C@@H](O)[C@@H](O)[C@H]2O[C@H]2C[C@](C)(N)[C@H](O)[C@H](C)O2)Oc2ccc(cc2Cl)[C@@H]1O [Vancomycin hydrochloride],> 46 µM
7,CN1C(=O)CC(=O)N(c2ccccc2)c2cc(Cl)ccc21 [CLOBAZAM],> 46 µM
8,O=C1c2ccccc2C(=O)C1c1ccc(Br)cc1 [Bromindione],> 46 µM
9,Cc1c(C(C)C)c(=O)n(-c2ccccc2)n1C [ISOPROPYLANTIPYRINE],> 46 µM
10,N=C(N)c1ccc(OCCCOc2ccc(C(=N)N)cc2Br)c(Br)c1 [Dibromopropamidine Dihydrochloride],> 46 µM
11,CN1[C@@H]2CC[C@H]1CC(OC(=O)C(CO)c1ccccc1)C2 (some centres undefined) [Atropine],> 46 µM
12,CCCC(C)(COC(N)=O)COC(=O)NC1CC1 (centres undefined) [Lorbamate],> 46 µM
13,COC(=O)N/N=C/c1c[n+]([O-])c2ccccc2[n+]1[O-] [CARBADOX],> 46 µM
14,COC(=O)c1ccc(O)cc1 [Methylparaben],> 46 µM
15,O=C(NCC1CCCCN1)c1cc(OCC(F)(F)F)ccc1OCC(F)(F)F (centres undefined) [FLECAINIDE],> 46 µM
16,COC(=O)C(Cc1ccccc1)NC(=O)C(N)CC(=O)O (centres undefined) [ASPARTAME],> 46 µM
17,CN1CCN(c2cc3c(nn2)Oc2ccccc2N3C)CC1 [Pipofezine],> 46 µM
18,CC[N+](C)(C)Cc1ccccc1Br.Cc1ccc(S(=O)(=O)[O-])cc1 [Bretylium tosylate],> 46 µM
19,C1C\N=C(\COC2=C(C=CC=C2)C3CC3)N1 [CIRAZOLINE],> 46 µM
20,CCOC(=O)c1cnc2c(cnn2CC)c1NN=C(C)C.Cl [Etazolate hydrochloride],> 46 µM
21,O=C(O)C(O)C(O)C(O)C(O)C(=O)O (centres undefined) [MUCIC ACID],> 46 µM
22,CCO[C@@H](Cc1ccc(OCCc2ccc(O[S+](C)(=O)[O-])cc2)cc1)C(=O)O [Tesaglitazar],> 46 µM
23,O=C([O-])CN(CCN(CC(=O)[O-])CC(=O)[O-])CC(=O)[O-].[Fe+3].[Na+] [Feredato sodico],> 46 µM
